What was measured:
[1] = target: recombinant His-tag Wip1 full length protein (amino acids #1-605) (Homo sapiens (Human), UniProt O15297); assay: Wip1 full length phosphatase enzyme FDP assay; type: biochemical; details: fluorescein diphosphate (FDP) substrate, RT 2 hours, fluorescence Ex485/Em535
[2] = target: recombinant His-tag Wip1(2-420) protein (amino acids #2-420) (Homo sapiens (Human), UniProt O15297); assay: Wip1(2-420) phosphatase enzyme FDP assay; type: biochemical; details: fluorescein diphosphate (FDP) substrate, RT 2 hours, fluorescence Ex485/Em535; read-out: WIP1 (Truncated 2-420) FDP Assay: IC50
recombinant His-tag Wip1(2-420) protein (amino acids #2-420), sequence (O15297 2-420): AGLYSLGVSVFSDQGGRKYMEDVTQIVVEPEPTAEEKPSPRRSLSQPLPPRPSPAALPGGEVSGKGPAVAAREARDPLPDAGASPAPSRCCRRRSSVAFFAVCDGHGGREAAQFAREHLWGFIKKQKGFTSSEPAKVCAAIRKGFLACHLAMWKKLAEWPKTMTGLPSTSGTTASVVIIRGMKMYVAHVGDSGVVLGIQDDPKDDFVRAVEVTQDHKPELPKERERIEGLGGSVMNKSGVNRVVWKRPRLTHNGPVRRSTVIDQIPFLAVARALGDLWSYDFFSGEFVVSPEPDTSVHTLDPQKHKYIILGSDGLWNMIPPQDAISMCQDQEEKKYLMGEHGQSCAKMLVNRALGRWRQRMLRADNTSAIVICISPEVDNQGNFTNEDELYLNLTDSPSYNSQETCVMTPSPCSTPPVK

recombinant His-tag Wip1 full length protein (amino acids #1-605), sequence (O15297 whole entry, the tested form may be a part): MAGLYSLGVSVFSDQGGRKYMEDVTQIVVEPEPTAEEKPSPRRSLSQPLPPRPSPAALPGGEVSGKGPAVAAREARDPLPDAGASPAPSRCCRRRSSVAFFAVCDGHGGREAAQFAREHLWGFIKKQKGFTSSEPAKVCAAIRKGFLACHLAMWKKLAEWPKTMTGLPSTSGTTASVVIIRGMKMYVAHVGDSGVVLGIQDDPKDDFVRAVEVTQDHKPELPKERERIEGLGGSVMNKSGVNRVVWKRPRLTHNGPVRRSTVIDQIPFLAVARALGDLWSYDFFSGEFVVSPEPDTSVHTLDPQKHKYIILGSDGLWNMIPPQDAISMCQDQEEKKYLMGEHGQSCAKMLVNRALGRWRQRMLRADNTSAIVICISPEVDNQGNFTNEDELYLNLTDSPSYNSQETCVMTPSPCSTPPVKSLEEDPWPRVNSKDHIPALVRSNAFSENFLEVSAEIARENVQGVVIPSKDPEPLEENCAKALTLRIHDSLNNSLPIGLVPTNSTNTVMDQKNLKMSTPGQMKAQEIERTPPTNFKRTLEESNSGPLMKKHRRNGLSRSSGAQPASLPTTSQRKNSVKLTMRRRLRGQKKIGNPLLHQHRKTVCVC

Compound	IC50 [1]	IC50 [2]
COc1ncc(Cl)cc1N[C@@H](C)c1ccc(C(=O)N[C@@H](CC2CCCC2)C(=O)N[C@H]2CC2(F)F)s1 [Compound 49, (2S)-2-({5-[(1S)-1-[(5-chloro-2-methoxypyridin-3-yl)amino]ethyl]thiophen-2-yl}formamido)-3-cyclopentyl-N-[(1S)-2,2-difluorocyclopropyl]propanamide]	164 nM	104 nM
CC[C@@H](Nc1cc(Cl)cnc1C)c1ccc(C(=O)N[C@@H](CC2CCCC2)C(=O)N[C@@H]2CC2(F)F)s1 [Compound 50, (2S)-2-({5-[(1R)-1-[(5-chloro-2-methylpyridin-3-yl)amino]propyl]thiophen-2-yl}formamido)-3-cyclopentyl-N-[(1R)-2,2-difluorocyclopropyl]propanamide]	170 nM	122 nM
CC[C@@H](Nc1cc(Cl)cnc1C)c1ccc(C(=O)N[C@@H](CC2CCCC2)C(=O)N[C@H]2CC2(F)F)s1 [Compound 51, (2S)-2-({5-[(1R)-1-[(5-chloro-2-methylpyridin-3-yl)amino]propyl]thiophen-2-yl}formamido)-3-cyclopentyl-N-[(1S)-2,2-difluorocyclopropyl]propanamide]	113 nM	74 nM
Cc1ncc(Cl)cc1NC(C)(C)c1ccc(C(=O)N[C@@H](CC2CCCC2)C(=O)NC23CC(C2)C3)s1 [Compound 54, (2S)-N-{bicyclo[1.1.1]pentan-1-yl}-2-[(5-{2-[(5-chloro-2-methylpyridin-3-yl)amino]propan-2-yl}thiophen-2-yl)formamido]-3-cyclopentylpropanamide]	11 nM	8 nM
Cc1ncc(Cl)cc1NC(C)(C)c1ccc(C(=O)N[C@@H](CC2CCCC2)C(=O)NC2CC2)s1 [Compound 55, (2S)-2-[(5-{2-[(5-chloro-2-methylpyridin-3-yl)amino]propan-2-yl}thiophen-2-yl)formamido]-3-cyclopentyl-N-cyclopropylpropanamide]	36 nM	29 nM
C[C@@H](c1ccc(C(=O)N[C@@H](CC2CCCC2)C(=O)NC2CC2)s1)N1CCc2cc(F)c(Cl)cc21 [Compound 56, (2S)-2-({5-[(1S)-1-(6-chloro-5-fluoro-2,3-dihydro-1H-indol-1-yl)ethyl]thiophen-2-yl}formamido)-3-cyclopentyl-N-cyclopropylpropanamide]	50 nM	39 nM
C[C@H](c1ccc(C(=O)N[C@@H](CC2CCCC2)C(=O)NC2CC2)s1)N1CCc2cc(F)c(Cl)cc21 [Compound 57, (2S)-2-({5-[(1R)-1-(6-chloro-5-fluoro-2,3-dihydro-1H-indol-1-yl)ethyl]thiophen-2-yl}formamido)-3-cyclopentyl-N-cyclopropylpropanamide]	16 nM	12 nM

Results, then the compound that gave them:

IC50 [1]	IC50 [2]	Compound
11 nM	11 nM	CC[C@H](Nc1cc(Cl)cnc1C)c1ccc(C(=O)N[C@@H](CC2CCCC2)C(=O)N[C@@H]2CC2(F)F)s1 [Compound 47, (2S)-2-({5-[(1S)-1-[(5-chloro-2-methylpyridin-3-yl)amino]propyl]thiophen-2-yl}formamido)-3-cyclopentyl-N-[(1R)-2,2-difluorocyclopropyl]propanamide]
8 nM	5 nM	CC[C@H](Nc1cc(Cl)cnc1C)c1ccc(C(=O)N[C@@H](CC2CCCC2)C(=O)N[C@H]2CC2(F)F)s1 [Compound 48, (2S)-2-({5-[(1S)-1-[(5-chloro-2-methylpyridin-3-yl)amino]propyl]thiophen-2-yl}formamido)-3-cyclopentyl-N-[(1S)-2,2-difluorocyclopropyl]propanamide]
8 nM	5 nM	Cc1ccc(NC(=O)[C@H](CC2CCCC2)NC(=O)c2ccc([C@H](C)Nc3cc(Cl)cnc3C)s2)cn1 [Compound 53, (2S)-2-({5-[(1S)-1-[(5-chloro-2-methylpyridin-3-yl)amino]ethyl]thiophen-2-yl}formamido)-3-cyclopentyl-N-(6-methylpyridin-3-yl)propanamide]

— patent publication US20240116910A1, “Heterocycles as WIP1 Inhibitors” (PMV Pharmaceuticals, Inc., priority 2022, published 2024)
